From US8455240B2, “Use of thermophilic sulphate-reducing archaea for the implementation of a process for the degradation of hydrocarbons” (Institut de Recherche pour le Development (I.R.D.), priority 2005, dated 2013)
Several values for one entry are separate records, joined by “and”; a condition that tells them apart may be missing. Equal values may be shown once.

Experiments:
[1] = test system: Archaeoglobus fulgidus (DSM 4304); assay: Degradation of different substrates by A. fulgidus as a function of the electron acceptor; format: cell-based; conditions: for total H2S: unit from b116
Protocol: (§1) Experimentally, 4 ml of Cord-Ruwish reagent comprising 50 mmol/l of HCl and 5 mmol/l of CuSO4 are added to 0.1 ml of sample. Copper sulphate (CuSO4) by reacting with hydrogen sulphide (H2S), forms a copper sulphide precipitate (CuS) after the reaction: CuSO4+H2S→CuS+H2SO4
(§2) According to this method, the CuS is assayed by spectrophotometry at 480 nm. The readings are carried out against a blank constituted by 4 ml of Cord-Ruwish reagent.
(§3) The analysis and quantification of the metabolites are carried out by HPLC by measuring the disappearance of the substrate and the appearance of different metabolism products.
(§4) The study of the degradation abilities of different substrates of the strain L-3 was based on a comparison with the collection strain, Archaeoglobus fulgidus (DSM 4304). The degradation of the substrates, by the two strains was monitored by a measurement of the cell biomass at 580 nm, a sulphide assay produced according to the Cord-Ruwish method, a study of the degradation metabolites by HPLC, completed by a CO2 assay with a GPC-Katharometer.
(§5) Two series of tests were prepared, one with thiosulphate, the other with sulphate as an electron acceptor.

strain L-3 [2] = assay: Degradation of different substrates by the strain L-3 as a function of the electron acceptor; format: cell-based, Archaeoglobus fulgidus CNCM I-3465 (strain L-3); design: total H2S: unit not given here
Protocol: as §1, §2, §3, §4, §5

strain L-3 [3] = assay: Sources of carbon and energy used by the strain L-3; format: cell-based, Archaeoglobus fulgidus CNCM I-3465 (strain L-3); conditions: thiosulphate as electron acceptor; for H2S (480 nm): unit from b126
Protocol: as §1, §2, §3
The study of the growth of the strain L-3 in the presence of different sources of carbon and energy was carried out with thiosulphate as an electron acceptor. The monitoring was carried out by estimation of the cell biomass (OD 580 nm), by assay of the sulphide production (Cord-Ruwish). The results were confirmed by HPLC analyses, and completed in certain cases by a CO2 assay.

Archaeoglobus fulgidus [4] = assay: Screening for hydrocarbon degradation, A. fulgidus (sulphide production, Cord-Ruwish); format: cell-based
Protocol: as §1, §2
(§6) The study of the hydrocarbon degradation abilities is an experiment which requires a particularly long incubation. Thus, it was carried out in Bellco tubes sealed with thick rubber stoppers.
(§7) For these experiments, tubes containing 10 ml of culture medium without substrate, are 10% inoculated, then the hydrocarbon is introduced by injection through the stopper.
(§8) The hydrocarbons chosen are model molecules belonging to the different classes of hydrocarbons, namely: • hexadecane (CH3(CH2)14CH3, C16), a saturated linear aliphatic hydrocarbon; • hexadecene (CH3(CH2)13CHCH2, C16:1), an unsaturated linear aliphatic hydrocarbon of biogenic origin; • dibenzothiophene (DBT, C12H8S), a sulphur-containing aromatic hydrocarbon.
(§9) The aliphatic hydrocarbons (C16; C16:1) are added to the corresponding tubes, at a rate of 0.04 ml/10 ml of culture medium. The aromatic hydrocarbons (DBT) are solubilized in 2,2,4,4,6,8,8-heptamethylnonane (HMN, C16H34) at a rate of 20 mg/ml of HMN, and 0.75 ml of this solution is injected into 10 ml of culture medium.
(§10) 3 tubes were produced for each test and control. The growth of the strains was monitored indirectly by the production of sulphide.
(§11) A subculture was carried out starting from the preceding experiment on naphthalene, DBT solubilized as previously in HMN, and on HMN alone, for the two strains studied.

strain L-3 [5] = assay: Screening for hydrocarbon degradation, strain L-3 (sulphide production, Cord-Ruwish); format: cell-based, Archaeoglobus fulgidus CNCM I-3465 (strain L-3); conditions: 45 d
Protocol: as §1, §2, §6, §7, §8, §9, §10, §11

A. fulgidus = assay: Subculture on hydrocarbons, A. fulgidus (sulphide production); format: cell-based, Archaeoglobus fulgidus
Protocol: as §1, §2, §11
(§12) For this subculture, apart from the tests containing the hydrocarbon (DBT, naphthalene (Naph), […]), and seeded with the previously chosen inoculum, abiotic controls (negative controls) containing the substrate (hydrocarbon) but not inoculated were produced for the purpose of quantifying the sulphide production which could be due to chemical reactions between the different constituents of the medium. In these controls there was no development in the concentration of sulphide over a period of 20 days (Table 4).

strain L-3 [6] = assay: Subculture on hydrocarbons, strain L-3 (sulphide production); format: cell-based, Archaeoglobus fulgidus CNCM I-3465 (strain L-3)
Protocol: as §1, §2, §11, §12

Archaeoglobus fulgidus [7] = assay: Degradation kinetics of lactate; format: cell-based
Protocol: as §3
This can be explained by the fact that the strain L-3 can have a substrate degradation metabolism different from that of Archaeoglobus fulgidus.

[8] = thiosulphate as electron acceptor
[9] = thiosulphate or sulphate as electron acceptor

lactate
initial OD 580 ([1]; sulphate as electron acceptor): 0.1657 and 0.1456
total H2S ([1]; sulphate as electron acceptor): 7.1 mM and 12.2 mM
final OD 580 [1, 8]: 0.3681 and 0.314
initial OD 580 [1, 8]: 0.1333 and 0.1419
total H2S [1, 8]: 8 mM and 9.3 mM
ability of Archaeoglobus fulgidus to oxidize the substrate [1, 9]: capable of oxidizing
final OD 580 (strain L-3 [2]; sulphate as electron acceptor): 0.3076 and 0.2071
initial OD 580 (strain L-3 [2]; sulphate as electron acceptor): 0.1024 and 0.0888
total H2S (strain L-3 [2]; sulphate as electron acceptor): 2.8 and 1.4
final OD 580 (strain L-3 [2]; [8]): 0.1027 and 0.1161
initial OD 580 (strain L-3 [2]; [8]): 0.073 and 0.1029
total H2S (strain L-3 [2]; [8]): 9.3 and 7.2
ability of the strain L-3 to degrade the substrate (strain L-3 [2]; [9]): capable of degrading
OD 580 nm Final (strain L-3 [3]): 0.1249 and 0.1173
OD 580 nm Initial (strain L-3 [3]): 0.0742 and 0.0841
H2S (480 nm) (strain L-3 [3]): 5.7 mM and 2.9 mM
H2S (480 nm) (strain L-3 [3]; listed as lactate): 5.7 mM
sulphide production (OD 480) 45 d (Archaeoglobus fulgidus [4]; 45 d): 3.5 mM and 3.8 mM and 4.3 mM
sulphide production (OD 480) 60 d (Archaeoglobus fulgidus [4]; 60 d): 3.3 mM and 3 mM and 3.1 mM
sulphide production (OD 480) 70 d (Archaeoglobus fulgidus [4]; 70 d): 3.9 mM and 3.7 mM
ΔS tf-ti (Archaeoglobus fulgidus [4]; final minus initial sulphide): 3.6 mM and 3.2 mM
sulphide production (OD 480) 45 d (strain L-3 [5]): 1.8 mM and 3.2 mM and 1.7 mM
sulphide production (OD 480) 8 d (A. fulgidus; 8 d): 0.3 mM
sulphide production (OD 480) 22 d (A. fulgidus; 22 d): 0.3 mM
sulphide production (OD 480) 45 d (A. fulgidus; 45 d): 0.2 mM and 0.3 mM
sulphide production (OD 480) 0 d (strain L-3 [6]; 0 d): 0.2 mM and 0.1 mM
sulphide production (OD 480) 8 d (strain L-3 [6]; 8 d): 4.8 mM and 6.1 mM
sulphide production (OD 480) 22 d (strain L-3 [6]; 22 d): 4.7 mM and 8 mM
sulphide production (OD 480) 45 d (strain L-3 [6]; 45 d): 3.9 mM
lactate degradation at the end of three months (Archaeoglobus fulgidus [7]): all of the lactate is degraded
